Test results taken from patent publication US10570179B2, “Substituted urea depsipeptide analogs as activators of the CLPP endopeptidase” (priority 2016, dated 2020).
Numbered stars: 1 amine (or outer) side, 2 acyl side, 3 side chain; on linkers, the order of the positions; unused ones are H or OH. Bridge positions count the residues as written; N and C are the ends. Square brackets hold non-standard residues; d marks the D form. Peptide text beside a SMILES is read from it. * marks the point of attachment. Phe(3-CF3) = N[C@@H](Cc1cccc(C(F)(F)F)c1)C(=O)O; Piperazine(2S-CO,4-Me) = CN1CCN[C@H](C(=O)O)C1; NH(1,3-benzodioxol-5-yl) = c1cc2c(cc1N*)OCO2; Phe(3,5-F2) = N[C@@H](Cc1cc(F)cc(F)c1)C(=O)O; NH(1-Me-indolin-5-yl) = CN1CCc2cc(N*)ccc21; X6 = O=C([C@@H]1CS(=O)(=O)CCN1[*:1])[*:2]; Phe(3-Cl) = N[C@@H](Cc1cccc(Cl)c1)C(=O)O; Morpholine(3S-CO) = O=C(O)[C@@H]1COCCN1; Phe(3-Me) = Cc1cccc(C[C@H](N)C(=O)O)c1; NH(4-Cl-2-F-phenyl) = Fc1cc(Cl)ccc1N*; Pro(4R-Me) = C[C@H]1CN[C@H](C(=O)O)C1; Hyp = O=C(O)[C@@H]1C[C@@H](O)CN1; NH(4-Et-phenyl) = CCc1ccc(N*)cc1; NH(4-Me-phenyl) = Cc1ccc(N*)cc1; aThr = C[C@H](O)[C@H](N)C(=O)O; Pip = O=C(O)[C@@H]1CCCCN1; 4Abz = Nc1ccc(C(=O)O)cc1; X3 = c1cc2c(cc1N*)OCCO2; CO = O=C([*:1])[*:2]

Assays:
[1] = Plasma protein binding, rapid equilibrium dialysis; type: in vitro ADME, mouse
Method: This assay determines plasma protein binding of a drug/compound and free drug concentration in plasma using rapid equilibrium dialysis, which allow the aqueous component of plasma containing the free drug/compound through a dialysis membrane (MWCO˜8,000).
Solutions were prepared at 10 mM in DMSO. Dulbecco's phosphate buffered saline (DPBS; pH 7.4) was obtained from Invitrogen (Carlsbad, Calif.). Single-Use RED (rapid equilibrium dialysis) device was obtained from Thermo scientific (Rockford, Ill.). Human plasma was obtained from Innovative Research INC (Novi, Michigan, Ill).
Sample preparation for plasma protein binding was modified from Waters' method. (Waters et al. (2008) J. Pharm. Sci. 97(10): 4586-95). The Teflon base plate with the RED inserts (MWCO 8 K) were allowed to use without any pre-condition the membrane inserts. Human plasma was thawed and centrifuged at 1000 rpm for 2 min to remove any particulates. Each compound was prepared at 10 μM in human plasma. This was done by adding 1 μL, of drug solution (10 mM in DMSO) to 1000 μL, of human plasma (0.1% DMSO). Spiked plasma solutions (300 μL) were placed into the sample chamber (indicated by the red ring) and 500 μL, of DPBS into the adjacent chamber. The plate was sealed and incubated at 37° C. on an orbital shaker (100 rpm) for 4 hours. After incubation, the seal was removed from the RED plate and the volume of the insert confirmed—little to no volume change occurred. Aliquots (50 μL) were removed from each side of the insert and dispensed into a 96-well deep plate. An equal volume of blank plasma or DPBS was added to the required wells to create analytically identical sample matrices (matrix matching). To each sample 200 μL, of ACN containing 4 μg/mL warfarin IS was added. All of the plates were sealed and mixed well at 600 rpm for 10 min and were centrifuged at 4000 rpm for 20 min. The supernatants (120 μL) were transferred to analytical plates for analysis by LCMS. Conditions for Waters ACQUITY-UPLC-MS-UV system were described separately. The test compound concentrations were quantified in both buffer and plasma chambers via peak areas relative to the internal standard. The percentage of the test compound bound to plasma was calculated on following equations: % Free=(Concentration buffer chamber/concentration plasma chamber)×100% and % Bound=100%-% Free.

[2] = Microsomal metabolic stability; type: in vitro ADME, human
Method: Compounds were initially prepared by dissolving them into DMSO at a final concentration of 10 mM. NADPH regenerating solutions A and B and mouse liver microsomes (CD-1) were obtained from BD Gentest (Woburn, Mass.). Ninety-six well deep well plates were obtained from MidWest Scientific Inc (Valley Park, Mo.).
Sample preparation for microsomal stability was modified from methods of Di, L., et al., Int J Pharm. 2005 Jun. 13; 297(1-2):110-9. A set of incubation times of 0, 15, 30, 60, 120, and 240 minutes were used. Mouse liver microsomal solutions were prepared by adding 58 μL of concentrated human or mouse liver microsomes (20 mg/mL protein concentration) to 1.756 mL of 0.1 M potassium phosphate buffer (pH 7.4) and 5 μL of 0.5 M EDTA to make a 0.6381 mg/mL (protein) microsomal solution. NADPH regenerating agent contained 113 μL of NADPH A, 23 μL of NADPH B, and 315 μL of 0.1 M potassium phosphate buffer (pH 7.4). The diluted test compound solutions (2 μL) were each added directly to a 1.79 mL of liver microsomal solution. This solution was mixed and 90 μL was transferred to 6 time points plates (each in triplicate wells). For the time 0 plate, 225 μL of cold acetonitrile with internal standard ([…] warfarin) was added to each well, followed by addition of NADPH regenerating agent (22.5 μL) and no incubation. For other five time points' plate, NADPH regenerating agent (22.5 μL) was added to each well to initiate the reaction. The plates were incubated at 37° C. for the required time, followed by quenching of the reaction by adding 225 μL of cold acetonitrile with internal standard (4 μg/ml warfarin). All of the plates were sealed and mixed well at 600 rpm for 10 minutes followed by centrifugation at 4000 rpm for 20 minutes. The supernatants (120 μL) were transferred to analytical plates for analysis by LCMS. LCMS conditions were described in the materials and instrumentation section above. The metabolic stability is evaluated via the half-life from least-squares fit of the multiple time points based on first-order kinetics.

[3] = plasma binding, % Bound, mouse plasma
[4] = microsomal metabolic stability half-life, human liver microsomes

Row | SMILES | Mouse ([1]; mouse, 4 h, 10 μM, pH 7.4) | Human ([2]; human, pH 7.4) | Mouse [1, 3] | Human [2, 4]
1 | C[C@@H]1C[C@H]2C(=O)O[C@@H](C)[C@H](NC(=O)[C@H](Cc3cccc(Cl)c3)NC(=O)Nc3ccc(Cl)cc3F)C(=O)N3CCC[C@H]3C(=O)N3CCN(C)C[C@H]3C(=O)N[C@@H](C)C(=O)N2C1 [Compound 33] ({NH(4-Cl-2-F-phenyl)-CO}-[Phe(3-Cl)][aThr]P[Piperazine(2S-CO,4-Me)]A[Pro(4R-Me)]; ester 2-C) | 99.5 ± 9.5% | 9.25 ± .255 h |  | 
2 | Cc1ccc(NC(=O)N[C@@H](Cc2cccc(C)c2)C(=O)N[C@@H]2C(=O)N3C[C@H](O)C[C@H]3C(=O)N3CCN(C)C[C@H]3C(=O)N[C@@H](C)C(=O)N3C[C@H](C)C[C@H]3C(=O)O[C@H]2C)cc1 [Compound 30, (S)—N-((6AS,8R,12S,13S,15AS,17R,21S,23AS)-8-HYDROXY-2,13,17,21-TETRAMETHYL-6,11,15,20,23-PENTAOXOOCTADECAHYDRO-2H,6H,11H,15H-PYRAZINO[2,1-I]DIPYRROLO[2,1-C:2′,1′-L][1]OXA[4,7,10,13]TETRAAZACYCLOHEXADECIN-12-YL)-3-(M-TOLYL)-2-(3-(P-TOLYL)UREIDO)PROPANAMIDE] ({NH(4-Me-phenyl)-CO}-[Phe(3-Me)][aThr][Hyp][Piperazine(2S-CO,4-Me)]A[Pro(4R-Me)]; ester 2-C) |  |  | 92.4 ± 2.4% | 1.30 ± .305 h
3 | C[C@@H]1C[C@H]2C(=O)OC[C@H](NC(=O)[C@H](Cc3cccc(C(F)(F)F)c3)NC(=O)Nc3ccc(Cl)cc3F)C(=O)N3CCC[C@H]3C(=O)N3CCN(C)C[C@H]3C(=O)N[C@@H](C)C(=O)N2C1 [Compound 18, (S)-2-(3-(4-CHLORO-2-FLUOROPHENYL)UREIDO)-3-(3-(TRIFLUOROMETHYL)PHENYL)-N-((6AS,12S,15AS,17R,21S,23AS)-2,17,21-TRIMETHYL-6,11,15,20,23-PENTAOXOOCTADECAHYDRO-2H,6H,11H,15H-PYRAZINO[2,1-I]DIPYRROLO[2,1-C:2′,1′-L][1]OXA[4,7,10,13]TETRAAZACYCLOHEXADECIN-12-YL)PROPANAMIDE] ({NH(4-Cl-2-F-phenyl)-CO}-[Phe(3-CF3)]SP[Piperazine(2S-CO,4-Me)]A[Pro(4R-Me)]; ester 2-C) | 99.2 ± 0.1% | 0.75 ± 0.11 h |  | 
4 | Cc1cccc(C[C@H](NC(=O)Nc2ccc(Cl)cc2F)C(=O)N[C@@H]2C(=O)N3CCC[C@H]3C(=O)N3CCS(=O)(=O)C[C@H]3C(=O)N[C@@H](C)C(=O)N3C[C@H](C)C[C@H]3C(=O)O[C@H]2C)c1 [Compound 40, (S)-2-(3-(4-CHLORO-2-FLUOROPHENYL)UREIDO)-3-(M-TOLYL)-N-((6AS,12S,13S,15AS,17R,21S,23AR)-13,17,21-TRIMETHYL-2,2-DIOXIDO-6,11,15,20,23-PENTAOXOOCTADECAHYDRO-6H,11H,15H-DIPYRROLO[2,1-C:2′,1′-L][1,4]THIAZINO[3,4-I][1]OXA[4,7,10,13]TETRAAZACYCLOHEXADECIN-12-YL)PROPANAMIDE] ({NH(4-Cl-2-F-phenyl)-CO}-[Phe(3-Me)][aThr]P[X6]A[Pro(4R-Me)]; ester 2-C) | 99.4 ± 9.4% | 0.62 ± .623 h |  | 
5 | Cc1cccc(C[C@H](NC(=O)Nc2ccc3c(c2)OCO3)C(=O)N[C@H]2COC(=O)[C@@H]3C[C@@H](C)CN3C(=O)[C@H](C)NC(=O)[C@@H]3CN(C)CCN3C(=O)[C@@H]3CCCN3C2=O)c1 [Compound 17, (S)-2-(3-(BENZO[D][1,3]DIOXOL-5-YL)UREIDO)-3-(M-TOLYL)-N-((6AS,12S,15AS,17R,21S,23AS)-2,17,21-TRIMETHYL-6,11,15,20,23-PENTAOXOOCTADECAHYDRO-2H,6H,11H,15H-PYRAZINO[2,1-I]DIPYRROLO[2,1-C:2′,1′-L][1]OXA[4,7,10,13]TETRAAZACYCLOHEXADECIN-12-YL)PROPANAMIDE] ({NH(1,3-benzodioxol-5-yl)-CO}-[Phe(3-Me)]SP[Piperazine(2S-CO,4-Me)]A[Pro(4R-Me)]; ester 2-C) | 88.4 ± 1.6% | 1.58 ± 0.25 h |  | 
6 | Cc1cccc(C[C@H](NC(=O)Nc2ccc3c(c2)OCCO3)C(=O)N[C@@H]2C(=O)N3C[C@H](O)C[C@H]3C(=O)N3CCCC[C@H]3C(=O)N[C@@H](C)C(=O)N3C[C@H](C)C[C@H]3C(=O)O[C@H]2C)c1 [Compound 28, (S)-2-(3-(2,3-DIHYDROBENZO[B][1,4]DIOXIN-6-YL)UREIDO)-N-((2R,6S,8AS,14AS,16R,20S,21S,23AS)-16-HYDROXY-2,6,21-TRIMETHYL-5,8,14,19,23-PENTAOXOOCTADECAHYDRO-1H,5H,14H,19H-PYRIDO[2,1-I]DIPYRROLO[2,1-C:2′,1′-L][1]OXA[4,7,10,13]TETRAAZACYCLOHEXADECIN-20-YL)-3-(M-TOLYL)PROPANAMIDE] ({X3-CO}-[Phe(3-Me)][aThr][Hyp][Pip]A[Pro(4R-Me)]; ester 2-C) | 98.1 ± 8.1% | 0.18 ± .185 h |  | 
7 | C[C@@H]1C[C@H]2C(=O)O[C@@H](C)[C@H](NC(=O)[C@H](Cc3cc(F)cc(F)c3)NC(=O)Nc3ccc4c(c3)CCN4C)C(=O)N3CCC[C@H]3C(=O)N3CCOC[C@H]3C(=O)N[C@@H](C)C(=O)N2C1 [Compound 32] ({NH(1-Me-indolin-5-yl)-CO}-[Phe(3,5-F2)][aThr]P[Morpholine(3S-CO)]A[Pro(4R-Me)]; ester 2-C) |  |  | 91.5 ± 1.5% | 2.66 ± .66 h
8 | CCc1ccc(NC(=O)N[C@@H](Cc2cccc(C)c2)C(=O)N[C@@H]2C(=O)N3C[C@H](O)C[C@H]3C(=O)N3CCOC[C@H]3C(=O)N[C@@H](C)C(=O)N3C[C@H](C)C[C@H]3C(=O)O[C@H]2C)cc1 [Compound 24, (S)-2-(3-(4-ETHYLPHENYL)UREIDO)-N-((6AS,8R,12S,13S,15AS,17R,21S,23AS)-8-HYDROXY-13,17,21-TRIMETHYL-6,11,15,20,23-PENTAOXOOCTADECAHYDRO-6H,11H,15H-[1,4]OXAZINO[3,4-I]DIPYRROLO[2,1-C:2′,1′-L][1]OXA[4,7,10,13]TETRAAZACYCLOHEXADECIN-12-YL)-3-(M-TOLYL)PROPANAMIDE] ({NH(4-Et-phenyl)-CO}-[Phe(3-Me)][aThr][Hyp][Morpholine(3S-CO)]A[Pro(4R-Me)]; ester 2-C) | 98.2 ± 0.1% | 4.89 ± 0.67 h |  | 
9 | CCOC(=O)c1ccc(NC(=O)N[C@@H](Cc2cccc(C)c2)C(=O)N[C@@H]2C(=O)N3C[C@H](O)C[C@H]3C(=O)N3CCCC[C@H]3C(=O)N[C@@H](C)C(=O)N3C[C@H](C)C[C@H]3C(=O)O[C@H]2C)cc1 [Compound 36, ETHYL 4-(3-((S)-1-(((2R,6S,8AS,14AS,16R,20S,21S,23AS)-16-HYDROXY-2,6,21-TRIMETHYL-5,8,14,19,23-PENTAOXOOCTADECAHYDRO-1H,5H,14H,19H-PYRIDO[2,1-I]DIPYRROLO[2,1-C:2′,1′-L][1]OXA[4,7,10,13]TETRAAZACYCLOHEXADECIN-20-YL)AMINO)-1-OXO-3-(M-TOLYL)PROPAN-2-YL)UREIDO)BENZOATE] ({OEt-4Abz-CO}-[Phe(3-Me)][aThr][Hyp][Pip]A[Pro(4R-Me)]; ester 2-C) |  |  |  | 4.81 ± .815 h
